From US20230085307A1, “PYRIDAZINONE COMPOUND AND HERBICIDE” (NISSAN CHEMICAL CORPORATION, priority 2019, published 2023)

Assays:
late watergrass = assay: Test Example 1: herbicidal activity, application before weed generation under submerged conditions (Table 16, symbol A); assay type: in vivo, late watergrass (Echinochloa oryzicola); settings: 320 g/ha applied herbicide
Outline: (§1)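 Alluvial soil was flooded to 4 cm depth, weed seeds were sown mixed and 2.5-leaf rice seedlings were transplanted. On sowing day, the compound's emulsion, diluted in water to a set dose, was applied to the water surface. Plants grew at 25–30 °C and were scored 0–5 after three weeks.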

oval-leafed pondweed = assay: Test Example 1: herbicidal activity, application before weed generation under submerged conditions (Table 16, symbol C); assay type: in vivo, oval-leafed pondweed (Monochoria vaginalis); settings: 320 g/ha applied herbicide
Outline: as §1

Japanese bulrush = assay: Test Example 2: herbicidal activity, application during weed generation under submerged conditions (Table 17, symbol B); assay type: in vivo, Japanese bulrush (Schoenoplectus juncoides); settings: AAH 320 g/ha; application during weed generation, submerged conditions
Outline: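 Alluvial soil in Wagner pots was flooded to 4 cm depth and sown with the three weeds together; pots were kept in a greenhouse at 25° C. to 30° C. At the one to two leaf stage, an emulsion formulation diluted in water to a set rate went onto the water surface; scored three weeks later.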

barnyard grass [1] = assay: Test Example 3: herbicidal effect by foliage application, Wagner pot (Table 18, symbol H); assay type: in vivo, barnyard grass (Echinochloa crus-galli); settings: 320 g/ha
Outline: (§2)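 Plants were sown in alluvial soil held under 0.1–0.5 cm standing water and grown 14 days in a greenhouse at 25–30 °C. An emulsifiable formulation, water-diluted to the set dose, was then sprayed onto the foliage, and effects were scored three weeks later using previously defined criteria.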

rice flat sedge = assay: Test Example 3: herbicidal effect by foliage application, Wagner pot (Table 18, symbol E); assay type: in vivo, rice flat sedge (Cyperus iria); settings: 320 g/ha
Outline: as §2

green foxtail = assay: Test Example 4: herbicidal effect by soil treatment (Table 19, symbol G); assay type: in vivo, green foxtail (Setaria viridis); settings: 320 g/ha
Outline: (§3)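 In this soil treatment, the formulated compound reached the seeds only through the soil: seeds were buried about 1.5 cm deep in sterilized diluvial soil, then the diluted emulsion was sprayed over the surface. After three weeks at 25° C. to 30° C. in a greenhouse, effects were graded on criteria from an earlier test.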

barnyard grass [2] = assay: Test Example 4: herbicidal effect by soil treatment (Table 19, symbol H); assay type: in vivo, barnyard grass (Echinochloa crus-galli); settings: 320 g/ha
Outline: as §3

velvetleaf = assay: Test Example 4: herbicidal effect by soil treatment (Table 19, symbol M); assay type: in vivo, velvetleaf (Abutilon theophrasti); settings: 320 g/ha
Outline: as §3

redroot pigweed = assay: Test Example 4: herbicidal effect by soil treatment (Table 19, symbol N); assay type: in vivo, redroot pigweed (Amaranthus retroflexus); settings: 320 g/ha
Outline: as §3

chickweed = assay: Test Example 4: herbicidal effect by soil treatment (Table 19, symbol P); assay type: in vivo, common chickweed (Stellaria media); settings: 320 g/ha
Outline: as §3

persian speedwell [3] = assay: Test Example 4: herbicidal effect by soil treatment (Table 19, symbol R); assay type: in vivo, Persian speedwell (Veronica persica); settings: 320 g/ha
Outline: as §3

southern crabgrass = assay: Test Example 5: herbicidal effect by foliage application, plastic box (Table 20, symbol F); assay type: in vivo, southern crabgrass (Digitaria ciliaris); settings: foliage application, 320 g/ha, evaluated three weeks after application
Outline: (§4)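 Plants were sown into sterilized diluvial soil under about 1.5 cm cover and kept in a greenhouse at 25° C. to 30° C. Fourteen days on, foliage received an even spray of the diluted emulsion. Herbicidal or crop effect was judged three weeks afterwards.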

barnyard grass [4] = assay: Test Example 5: herbicidal effect by foliage application, plastic box (Table 20, symbol H); assay type: in vivo, barnyard grass (Echinochloa crus-galli); settings: foliage application, 320 g/ha, evaluated three weeks after application
Outline: as §4

wild oat = assay: Test Example 5: herbicidal effect by foliage application, plastic box (Table 20, symbol I); assay type: in vivo, wild oat (Avena fatua); settings: foliage application, 320 g/ha, evaluated three weeks after application
Outline: as §4

blackgrass = assay: Test Example 5: herbicidal effect by foliage application, plastic box (Table 20, symbol J); assay type: in vivo, blackgrass (Alopecurus myosuroides); settings: foliage application, 320 g/ha, evaluated three weeks after application
Outline: as §4

persian speedwell [5] = assay: Test Example 5: herbicidal effect by foliage application, plastic box (Table 20, symbol R); assay type: in vivo, Persian speedwell (Veronica persica); settings: foliage application, 320 g/ha, evaluated three weeks after application
Outline: as §4

| SMILES | Herbicidal effect on A: late watergrass (grade 0-5) (late watergrass) | Herbicidal effect on C: oval-leafed pondweed (grade 0-5) (oval-leafed pondweed) | herbicidal effect rating, B: Japanese bulrush (Japanese bulrush) | herbicidal effect on H (barnyard grass), rating 0-5 (barnyard grass [1]) | herbicidal effect on E (rice flat sedge), rating 0-5 (rice flat sedge) | herbicidal effect rating, G: green foxtail (green foxtail) | herbicidal effect rating, H: barnyard grass (barnyard grass [2]) | herbicidal effect rating, M: velvetleaf (velvetleaf) | herbicidal effect rating, N: redroot pigweed (redroot pigweed) | herbicidal effect rating, P: chickweed (chickweed) | herbicidal effect rating, R: persian speedwell (persian speedwell [3]) | herbicidal effect on F: southern crabgrass (southern crabgrass) | herbicidal effect on H: barnyard grass (barnyard grass [4]) | herbicidal effect on I: wild oat (wild oat) | herbicidal effect on J: blackgrass (blackgrass) | herbicidal effect on R: persian speedwell (persian speedwell [5]) |
| --- | --- | --- | --- | --- | --- | --- | --- | --- | --- | --- | --- | --- | --- | --- | --- | --- |
| CSc1ccc(-c2sc3ccc(F)cc3c2-c2c(O)c(C)nn(C)c2=O)cc1 [2-076] | 3 (Herbicidal rate of 40% or more and less than 70%) | 0 (Herbicidal rate of 5% or less (almost no effect)) | 3 (Herbicidal rate of 40% or more and less than 70%) | 5 (Herbicidal rate of 90% or more (almost completely withered)) | 5 (Herbicidal rate of 90% or more (almost completely withered)) | 4 (Herbicidal rate of 70% or more and less than 90%) | 3 (Herbicidal rate of 40% or more and less than 70%) | 2 (Herbicidal rate of 20% or more and less than 40%) | 5 (Herbicidal rate of 90% or more (almost completely withered)) | 4 (Herbicidal rate of 70% or more and less than 90%) | 5 (Herbicidal rate of 90% or more (almost completely withered)) | 5 (Herbicidal rate of 90% or more (almost completely withered)) | 5 (Herbicidal rate of 90% or more (almost completely withered)) | 5 (Herbicidal rate of 90% or more (almost completely withered)) | 4 (Herbicidal rate of 70% or more and less than 90%) | 5 (Herbicidal rate of 90% or more (almost completely withered)) |
| CCCC(=O)Oc1c(C)nn(C)c(=O)c1-c1c(-c2ccc(SC)cc2)sc2ccc(F)cc12 [2-077] | 3 (Herbicidal rate of 40% or more and less than 70%) | 5 (Herbicidal rate of 90% or more (almost completely withered)) | 3 (Herbicidal rate of 40% or more and less than 70%) | 5 (Herbicidal rate of 90% or more (almost completely withered)) | 5 (Herbicidal rate of 90% or more (almost completely withered)) | 4 (Herbicidal rate of 70% or more and less than 90%) | 3 (Herbicidal rate of 40% or more and less than 70%) | 3 (Herbicidal rate of 40% or more and less than 70%) | 5 (Herbicidal rate of 90% or more (almost completely withered)) | 5 (Herbicidal rate of 90% or more (almost completely withered)) | 5 (Herbicidal rate of 90% or more (almost completely withered)) | 5 (Herbicidal rate of 90% or more (almost completely withered)) | 5 (Herbicidal rate of 90% or more (almost completely withered)) | 5 (Herbicidal rate of 90% or more (almost completely withered)) | 4 (Herbicidal rate of 70% or more and less than 90%) | 5 (Herbicidal rate of 90% or more (almost completely withered)) |
| CON=C(C)c1ccc(-c2sc3ccc(F)cc3c2-c2c(O)c(C)nn(C)c2=O)cc1 [2-079] | 1 (Herbicidal rate of 5% or more and less than 20%) | 1 (Herbicidal rate of 5% or more and less than 20%) | 0 (Herbicidal rate of 5% or less (almost no effect)) | 5 (Herbicidal rate of 90% or more (almost completely withered)) | 5 (Herbicidal rate of 90% or more (almost completely withered)) | 5 (Herbicidal rate of 90% or more (almost completely withered)) | 4 (Herbicidal rate of 70% or more and less than 90%) | 4 (Herbicidal rate of 70% or more and less than 90%) | 5 (Herbicidal rate of 90% or more (almost completely withered)) | 2 (Herbicidal rate of 20% or more and less than 40%) | 5 (Herbicidal rate of 90% or more (almost completely withered)) | 5 (Herbicidal rate of 90% or more (almost completely withered)) | 5 (Herbicidal rate of 90% or more (almost completely withered)) | 5 (Herbicidal rate of 90% or more (almost completely withered)) | 3 (Herbicidal rate of 40% or more and less than 70%) | 5 (Herbicidal rate of 90% or more (almost completely withered)) |
| CCCC(=O)Oc1c(C)nn(C)c(=O)c1-c1c(-c2ccc(C(C)=NOC)cc2)sc2ccc(F)cc12 [2-080] | 5 (Herbicidal rate of 90% or more (almost completely withered)) | 4 (Herbicidal rate of 70% or more and less than 90%) | 4 (Herbicidal rate of 70% or more and less than 90%) | 5 (Herbicidal rate of 90% or more (almost completely withered)) | 5 (Herbicidal rate of 90% or more (almost completely withered)) | 1 (Herbicidal rate of 5% or more and less than 20%) | 2 (Herbicidal rate of 20% or more and less than 40%) | 5 (Herbicidal rate of 90% or more (almost completely withered)) | 5 (Herbicidal rate of 90% or more (almost completely withered)) | 3 (Herbicidal rate of 40% or more and less than 70%) | 5 (Herbicidal rate of 90% or more (almost completely withered)) | 5 (Herbicidal rate of 90% or more (almost completely withered)) | 5 (Herbicidal rate of 90% or more (almost completely withered)) | 5 (Herbicidal rate of 90% or more (almost completely withered)) | 5 (Herbicidal rate of 90% or more (almost completely withered)) | 5 (Herbicidal rate of 90% or more (almost completely withered)) |
| CCOc1cc(F)ccc1-c1sc2ccc(F)cc2c1-c1c(O)c(C)nn(C)c1=O [2-084] | 1 (Herbicidal rate of 5% or more and less than 20%) | 2 (Herbicidal rate of 20% or more and less than 40%) | 1 (Herbicidal rate of 5% or more and less than 20%) | 5 (Herbicidal rate of 90% or more (almost completely withered)) | 5 (Herbicidal rate of 90% or more (almost completely withered)) | 4 (Herbicidal rate of 70% or more and less than 90%) | 4 (Herbicidal rate of 70% or more and less than 90%) | 3 (Herbicidal rate of 40% or more and less than 70%) | 5 (Herbicidal rate of 90% or more (almost completely withered)) | 4 (Herbicidal rate of 70% or more and less than 90%) | 5 (Herbicidal rate of 90% or more (almost completely withered)) | 4 (Herbicidal rate of 70% or more and less than 90%) | 5 (Herbicidal rate of 90% or more (almost completely withered)) | 4 (Herbicidal rate of 70% or more and less than 90%) | 5 (Herbicidal rate of 90% or more (almost completely withered)) | 5 (Herbicidal rate of 90% or more (almost completely withered)) |
